Data taken from patent US6737383B1, “Herbicidal oxadiazolidines” (priority 1999, dated 2004).

Tests used:
soybean = assay: Test B pre/postemergence soybean; format: in vivo, Glycine max
Outline: (§1)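 Response is a visual 0-to-10 score relative to untreated plants, where 0 means no effect and 10 means complete control, taken twelve to sixteen days after application. Treatments went onto soil at planting and onto foliage of 1- to 4-leaf plants, using a surfactant-containing non-phytotoxic solvent.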

duck salad = assay: Test B flood test duck salad; format: in vivo, Heteranthera limosa
Outline: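 Flood test on plants grown to the 2-leaf stage; treated plants kept in greenhouse twelve to sixteen days, then visually rated against controls on a 0 (no effect) to 10 (complete control) scale.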

morningglory = assay: Test B pre/postemergence morningglory; format: in vivo, Ipomoea hederacea
Outline: as §1

velvetleaf = assay: Test B pre/postemergence velvetleaf; format: in vivo, Abutilon theophrasti
Outline: as §1

corn = assay: Test B pre/postemergence corn; format: in vivo, Zea mays
Outline: as §1

sugar beet = assay: Test B pre/postemergence sugar beet; format: in vivo, Beta vulgaris
Outline: as §1

crabgrass = assay: Test B pre/postemergence crabgrass; format: in vivo, Digitaria sanguinalis
Outline: as §1

cocklebur = assay: Test B pre/postemergence cocklebur; format: in vivo, Xanthium strumarium
Outline: as §1

surinam grass = assay: Test B pre/postemergence surinam grass; format: in vivo, Brachiaria decumbens
Outline: as §1

pigweed = assay: Test B pre/postemergence pigweed; format: in vivo, Amaranthus retroflexus
Outline: as §1

wheat = assay: Test B pre/postemergence wheat; format: in vivo, Triticum aestivum
Outline: as §1

rape = assay: Test B pre/postemergence rape; format: in vivo, Brassica napus
Outline: as §1

bedstraw = assay: Test B pre/postemergence bedstraw; format: in vivo, Galium aparine
Outline: as §1

purple nutsedge = assay: Test B pre/postemergence purple nutsedge; format: in vivo, Cyperus rotundus
Outline: as §1

giant foxtail = assay: Test B pre/postemergence giant foxtail; format: in vivo, Setaria faberii
Outline: as §1

[1] = Preemergence, Rate 62 g/ha, scale of 0 to 10 where 0 is no effect and 10 is complete control
[2] = Preemergence, Rate 250 g/ha, scale of 0 to 10 where 0 is no effect and 10 is complete control
[3] = Preemergence, Rate 500 g/ha, scale of 0 to 10 where 0 is no effect and 10 is complete control
[4] = Rate 62 g/ha, Postemergence, scale 0 to 10 (0 no effect, 10 complete control)
[5] = Rate 125 g/ha, Postemergence, scale of 0 to 10 where 0 is no effect and 10 is complete control
[6] = Rate 250 g/ha, Postemergence, scale of 0 to 10 where 0 is no effect and 10 is complete control
[7] = Rate 500 g/ha, Postemergence, scale 0 to 10, 0 no effect, 10 complete control

Structure (SMILES): CC(C)N(C(=O)n1oc(=O)n(C2CCOCC2)c1=O)c1ccc(F)cc1 [Compound 310]
- Soybean plant response rating (soybean; [1]): 0
- Soybean plant response rating (0 to 10 scale) (soybean; Preemergence, Rate 125 g/ha): 0
- Soybean plant response rating (soybean; [2]): 2
- Soybean plant response rating (soybean; [3]): 5
- Soybean plant response rating (soybean; [4]): 4
- Soybean plant response rating (soybean; [5]): 4
- Plant response rating, Soybean (soybean; [6]): 4
- Ducksalad plant response rating (duck salad; Pre-emergence, Rate 1000 g/ha, scale 0 to 10 (0 no effect, 10 complete control)): 0
- Ducksalad plant response rating (duck salad; Rate 62 g/ha, headed Pre-emergence (flood test species), scale 0 to 10 (0 no effect, 10 complete control)): 0
- Ducksalad plant response rating (duck salad; Rate 125 g/ha, Pre-emergence, flood test species, scale 0 to 10 where 0 is no effect and 10 is complete control): 0
- Ducksalad plant response rating (duck salad; Rate 250 g/ha, Pre-emergence, flood-test species, scale 0 to 10, 0 is no effect, 10 is complete control): 0
- Ducksalad plant response rating (duck salad; Rate 500 g/ha, Pre-emergence, flood test species, scale 0 to 10 (0 no effect, 10 complete control)): 3
- Morningglory plant response rating (morningglory; [1]): 2
- Morningglory plant response rating (0 to 10 scale) (morningglory; Preemergence, Rate 125 g/ha): 6
- Morningglory plant response rating (morningglory; [2]): 6
- Morningglory plant response rating (morningglory; [3]): 8
- Morningglory plant response rating (morningglory; [4]): 4
- Morningglory plant response rating (morningglory; [5]): 5
- Plant response rating, Morningglory (morningglory; [6]): 7
- Velvetleaf plant response rating (velvetleaf; [1]): 2
- Velvetleaf plant response rating (0 to 10 scale) (velvetleaf; Preemergence, Rate 125 g/ha): 3
- Velvetleaf plant response rating (velvetleaf; [2]): 7
- Velvetleaf plant response rating (velvetleaf; [3]): 8
- Velvetleaf plant response rating (velvetleaf; [4]): 2
- Velvetleaf plant response rating (velvetleaf; [5]): 3
- Plant response rating, Velvetleaf (velvetleaf; [6]): 4
- Corn plant response rating (corn; [1]): 0
- Corn plant response rating (0 to 10 scale) (corn; Preemergence, Rate 125 g/ha): 0
- Corn plant response rating (corn; [2]): 0
- Corn plant response rating (corn; [3]): 5
- Corn plant response rating (corn; [4]): 0
- Corn plant response rating (corn; [5]): 0
- Plant response rating, Corn (corn; [6]): 0
- Corn plant response rating (corn; [7]): 0
- Sugarbeets plant response rating (sugar beet; [1]): 5
- Sugarbeets plant response rating (0 to 10 scale) (sugar beet; Preemergence, Rate 125 g/ha): 7
- Sugarbeets plant response rating (sugar beet; [2]): 10
- Sugarbeets plant response rating (sugar beet; [3]): 10
- Sugarbeets plant response rating (sugar beet; [4]): 0
- Sugarbeets plant response rating (sugar beet; [5]): 0
- Plant response rating, Sugarbeets (sugar beet; [6]): 2
- Crabgrass plant response rating (crabgrass; [1]): 5
- Crabgrass plant response rating (0 to 10 scale) (crabgrass; Preemergence, Rate 125 g/ha): 5
- Crabgrass plant response rating (crabgrass; [2]): 7
- Crabgrass plant response rating (crabgrass; [3]): 7
- Crabgrass plant response rating (crabgrass; [4]): 8
- Crabgrass plant response rating (crabgrass; [5]): 9
- Plant response rating, Crabgrass (crabgrass; [6]): 9
- Cocklebur plant response rating (cocklebur; [1]): 0
- Cocklebur plant response rating (0 to 10 scale) (cocklebur; Preemergence, Rate 125 g/ha): 0
- Cocklebur plant response rating (cocklebur; [2]): 2
- Cocklebur plant response rating (cocklebur; [3]): 4
- Cocklebur plant response rating (cocklebur; [4]): 0
- Cocklebur plant response rating (cocklebur; [5]): 0
- Plant response rating, Cocklebur (cocklebur; [6]): 2
- Cocklebur plant response rating (cocklebur; [7]): 7
- B. signalgrass plant response rating (surinam grass; [1]): 4
- B. signalgrass plant response rating (0 to 10 scale, 0 is no effect, 10 is complete control) (surinam grass; Preemergence, Rate 125 g/ha): 4
- B. signalgrass plant response rating (surinam grass; [2]): 7
- B. signalgrass plant response rating (surinam grass; [3]): 8
- B. signalgrass plant response rating (surinam grass; [4]): 2
- B. signalgrass plant response rating (surinam grass; [5]): 3
- Plant response rating, B. signalgrass (surinam grass; [6]): 7
- B. signalgrass plant response rating (surinam grass; [7]): 7
- Redroot pigweed plant response rating (pigweed; [1]): 9
- Redroot pigweed plant response rating (0 to 10 scale) (pigweed; Preemergence, Rate 125 g/ha): 10
- Redroot pigweed plant response rating (pigweed; [2]): 10
- Redroot pigweed plant response rating (pigweed; [3]): 10
- Redroot pigweed plant response rating (pigweed; [4]): 0
- Redroot pigweed plant response rating (pigweed; [5]): 0
- Plant response rating, Redroot pigweed (pigweed; [6]): 3
- Wheat plant response rating (wheat; [1]): 2
- Wheat plant response rating (0 to 10 scale) (wheat; Preemergence, Rate 125 g/ha): 2
- Wheat plant response rating (wheat; [2]): 5
- Wheat plant response rating (wheat; [3]): 7
- Wheat plant response rating (wheat; [4]): 4
- Wheat plant response rating (wheat; [5]): 4
- Plant response rating, Wheat (wheat; [6]): 6
- Rape plant response rating (rape; [1]): 5
- Rape plant response rating (0 to 10 scale) (rape; Preemergence, Rate 125 g/ha): 6
- Rape plant response rating (rape; [2]): 10
- Rape plant response rating (rape; [3]): 10
- Rape plant response rating (rape; [4]): 0
- Rape plant response rating (rape; [5]): 0
- Plant response rating, Rape (rape; [6]): 0
- Bedstraw plant response rating (bedstraw; [1]): 2
- Bedstraw plant response rating (0 to 10 scale) (bedstraw; Preemergence, Rate 125 g/ha): 3
- Bedstraw plant response rating (bedstraw; [2]): 5
- Bedstraw plant response rating (bedstraw; [3]): 10
- Bedstraw plant response rating (bedstraw; [4]): 4
- Bedstraw plant response rating (bedstraw; [5]): 4
- Plant response rating, Bedstraw (bedstraw; [6]): 7
- Bedstraw plant response rating (bedstraw; [7]): 5
- Nutsedge plant response rating (purple nutsedge; [1]): 0
- Nutsedge plant response rating (0 to 10 scale) (purple nutsedge; Preemergence, Rate 125 g/ha): 0
- Nutsedge plant response rating (purple nutsedge; [2]): 10
- Nutsedge plant response rating (purple nutsedge; [3]): 10
- Nutsedge plant response rating (purple nutsedge; [4]): 2
- Nutsedge plant response rating (purple nutsedge; [5]): 3
- Plant response rating, Nutsedge (purple nutsedge; [6]): 6
- Giant foxtail plant response rating (giant foxtail; [1]): 10
- Giant foxtail plant response rating (0 to 10 scale) (giant foxtail; Preemergence, Rate 125 g/ha): 10
- Giant foxtail plant response rating (giant foxtail; [2]): 10
- Giant foxtail plant response rating (giant foxtail; [3]): 10
- Giant foxtail plant response rating (giant foxtail; [4]): 7
- Giant foxtail plant response rating (giant foxtail; [5]): 7
- Plant response rating, Giant foxtail (giant foxtail; [6]): 8
